# Article PMC11904948, “Peptide‐Drug Conjugate for Therapeutic Reprogramming of Tumor‐Associated Macrophages in Breast Cancer” (Advanced Science, 2025)
# Tested on: orthotopic 4T1 tumors
# Experiment: In vivo photodynamic therapy study in orthotopic 4T1
# Set-up: species or system Balb/c mice
# Experimental: Figure 5 In vitro and in vivo photodynamic therapy with MACTIDE‐V. A) Structure of MACTIDE‐V. B) MACTIDE‐V, CtrlPep‐V, and DOX were incubated with primary human macrophages (obtained from monocytes derived from human blood buffy coat) at 30 µM for 1 h at 37 °C, followed by 2 washes with media. Then, the groups shown in pink were irradiated with 10 J cm^−2 (irradiance: 170 mW cm^−2, spot diameter: 0.5 cm). […] For the irradiated groups, 4 h after administration of conjugates or PBS, the mice were irradiated with 100 J cm^−2; shown is primary tumor volume progression during treatment. Gray arrows indicate injection days. D) Bodyweight during the treatment as % of the initial one. E) Representative mIHC images of PBS, CtrlPep‐V, and MACTIDE‐V‐treated tumors, 20X magnification, scale bar = 100 µm, white triangles point to Foxp3^+ cells. F) CD8^+ T cells, CD4^+ T cells, and Treg density, n = 6 mice/group, with every dot representing the mean cell density of each tumor obtained from 20 images. G) CD8^+ T cells density in CK8^+‐dense tumor regions. n = 5 mice/group, with every dot representing the mean cell density of each tumor obtained from 20 images. Median ± interquartile range. One‐way ANOVA with multiple comparisons, ^* p ≤ 0.05, ^** p ≤ 0.01.
# Prompted by the consistent laser‐induced and preferential toxicity of MACTIDE‐V on IL‐4‐stimulated macrophages, we decided to evaluate its in vivo therapeutic effect on mice survival in the orthotopic 4T1 model. […] This prompted us to further investigate the effect of MACTIDE‐V (‐), which hereafter will be denoted simply as “MACTIDE‐V”. To obtain further information on the effect of MACTIDE‐V in this tumor model, we investigated T cell infiltration in treated tumors, using multiplex immunohistochemistry (mIHC), comparing MACTIDE‐V (‐) group to PBS and CtrlPep‐V (‐) groups.
# Orthotopic tumors were induced by injecting 5×10^4 4T1 cells in 50 µL of PBS subcutaneously into the 4th mammary fat pad of 8–12‐week‐old female Balb/c mice. When tumors reached ≈40 mm^3, mice were sorted into groups: MACTIDE‐V (+), MACTIDE‐V (‐), CtrlPep‐V (+), CtrlPep‐V (‐), MACTIDE (‐), and PBS (+). Tumors were measured using a digital caliper (Mitutoyo) and volume was calculated using (W^2 × L)/2 formula, where W is the width of a tumor and L is the length. Each group had six mice. The first intraperitoneal injection (30 nmol) was carried out on day 9 post‐tumor induction. 4 h post‐injection, the tumor area was shaved to lessen laser scattering and tumors were irradiated with 100 J cm^−2 using the NIR laser source for PDT described above. Each tumor was measured, and the spot size was adjusted every time, keeping the radiation dose always constant. Irradiation of the tumors was done in complete darkness under anesthesia. Mice recovered on a heating pad and eye drops were applied to avoid eye dryness. All mice, whether irradiated or not, were anesthetized to keep the handling conditions the same. Mouse bodyweights and tumor volumes were monitored every other day. The sacrifice of mice began on day 23 based on their tumor sizes (over 1500 mm^3) or cachexia. The final mice were sacrificed on day 36 post‐tumor induction. Tumor volume curves are shown until day 23 when mice elimination began, and the sample number became too small for statistical comparison. Survival was analyzed using GraphPad Prism to plot Kaplan–Meier survival curves and perform the Mantel–Cox test for statistical analysis. Tumors taken on similar days were analyzed using mIHC.
# The staining of 4 µm‐thick formalin‐fixed paraffin‐embedded (FFPE) tissue sections for mIHC analysis was carried out using the tyramide signal amplification‐based Opal method (Akoya Biosciences) on a Leica BOND RX automated immunostainer (Leica Microsystems). For each staining cycle, FFPE slides were deparaffinized and subjected to heat‐induced epitope retrieval at 97 or 100 °C using BOND epitope retrieval solutions ER1 or ER2 (Leica Biosystems).
# [1] = non-irradiated, versus PBS and CtrlPep‐V (‐), n = 6 mice/group
substance,measurement,setting,value
Vert‐Ahx‐G(CTKSIPPIC)SPGAK‐OH (disulfide) [MACTIDE‐V],mice survival,"Kaplan–Meier, Mantel–Cox test",no significant differences
same,"primary tumor volume, non‐irradiated (‐)","i.p. 30 nmol (1 mg Kg^−1 in Verteporfin), no laser, n = 6/group, significant respect to PBS",strongest tumor volume reduction
same,"primary tumor growth, irradiated (+)","i.p. 30 nmol, irradiated 100 J cm^−2 4 h after administration, n = 6/group, versus control groups, not statistically significant",slowed down the tumor growth
same,"body weight, non‐irradiated (‐)","i.p. 30 nmol, no laser, % of initial bodyweight",negligible effect on body weight
same,CD8^+ T cell density in CK8^+‐dense tumor regions (mIHC),"non-irradiated, n = 5 mice/group",higher CD8^+ T cell density
same,CD8^+ T cell infiltration in tumors (mIHC),[1],significantly higher infiltration of CD8^+ T cells
same,density of regulatory T cells (Tregs) in tumors (mIHC),[1],no differences in the density of regulatory T cells
